Results published in publication PMC10162847 (Phytomedicine, 2023).

Test system: SARS-CoV-2 RBD^WT and mutant proteins on HEK293-hACE2-EGFP cells
Type: cell-based, human

**Q.** How did the “binding of SARS-CoV-2 S protein to HEK293-hACE2-EGFP cell membranes” value turn out when `O=c1c(O)c(-c2cc(O)c(O)c(O)c2)oc2cc(O)cc(O)c12` [myricetin, 3,5,7-trihydroxy-2-(3,4,5-tri hydroxyphenyl)-4-benzopyrone] was run?
**A.** The value was “blocked”.
